Molecular target: Poly(ADP-ribose) glycohydrolase (Homo sapiens, UniProt Q86W56)
Experiment: PARG Activity Assay
Protocol: PARG Activity Assay was performed in Streptavidin-coated 96-well plates. […] The substrate solution was added to the 96-well plate at the volume of 200 micro liter per well and incubated for 3 hours at room temperature. After the incubation, the substrate solution was discarded and assay plate was washed 4 times with 220 micro liter of PBS containing 0.1% Tween20 (PBST). […] The diluted enzyme solution was pre-incubated with compounds for 1 hour at room temperature in a 96-well plate and transferred 100 micro liter per well to the poly (ADP-ribose) substrate-coated assay plate. The plate was incubated for 1 hour at 25° C. and then washed 4 times with 220 micro liters of PBST. For the detection of non-digested poly (ADP-ribose) polymer on the plate, mouse anti-poly (ADP-ribose) antibody diluted with 0.2% BSA containing PBS was added 100 micro liters per well and incubated 1 hour at room temperature. Plate was washed 4 times with TBST and 100 micro liter of HRP-labeled anti-mouse Ig antibody was added to the wells. Plate was incubated for 30 minutes at room temperature and then washed 4 times with PBST. For the detection 100 micro liters of TMB substrate solution was added to the wells. After sufficient color development, reaction was stopped by addition of 50 micro liter of 0.2 M […].

Chain of Poly(ADP-ribose) glycohydrolase (Q86W56 whole entry): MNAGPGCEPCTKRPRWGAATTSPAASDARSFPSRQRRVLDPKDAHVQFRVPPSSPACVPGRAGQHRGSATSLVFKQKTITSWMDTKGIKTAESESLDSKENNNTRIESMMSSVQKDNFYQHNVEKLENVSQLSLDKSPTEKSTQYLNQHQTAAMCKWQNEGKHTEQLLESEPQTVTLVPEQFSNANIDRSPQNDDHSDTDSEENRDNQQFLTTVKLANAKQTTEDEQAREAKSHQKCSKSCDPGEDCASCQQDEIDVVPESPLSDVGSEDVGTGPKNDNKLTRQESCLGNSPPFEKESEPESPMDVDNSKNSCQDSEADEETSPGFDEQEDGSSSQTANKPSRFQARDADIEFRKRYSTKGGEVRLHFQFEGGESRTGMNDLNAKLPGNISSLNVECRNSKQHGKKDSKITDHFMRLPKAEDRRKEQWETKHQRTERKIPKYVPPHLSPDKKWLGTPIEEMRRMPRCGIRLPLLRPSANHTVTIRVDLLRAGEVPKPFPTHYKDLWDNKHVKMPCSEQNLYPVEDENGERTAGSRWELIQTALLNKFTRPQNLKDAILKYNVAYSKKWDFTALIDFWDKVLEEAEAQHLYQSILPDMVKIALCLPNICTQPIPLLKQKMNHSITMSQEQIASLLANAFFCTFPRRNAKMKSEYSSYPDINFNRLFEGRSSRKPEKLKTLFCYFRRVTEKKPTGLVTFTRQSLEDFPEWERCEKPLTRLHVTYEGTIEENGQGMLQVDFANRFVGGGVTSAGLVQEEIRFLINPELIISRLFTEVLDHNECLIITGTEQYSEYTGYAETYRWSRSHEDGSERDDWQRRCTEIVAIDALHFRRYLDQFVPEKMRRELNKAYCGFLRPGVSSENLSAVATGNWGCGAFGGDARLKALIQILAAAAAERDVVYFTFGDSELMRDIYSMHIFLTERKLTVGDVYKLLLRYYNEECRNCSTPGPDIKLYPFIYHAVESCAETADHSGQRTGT

| Compound | IC50 [nM] |
| --- | --- |
| Cc1ncc(Cn2c(=O)[nH]c3sc(S(=O)(=O)NC4(C)CC4)cc3c2=O)s1 [US20240083908, Example 1] | 22900 |
| Cc1ncc(Cn2c(=O)c3cc(S(=O)(=O)NC4(C)CC4)sc3n(CCCN(C)C)c2=O)s1 [US20240083908, Example 8] | 630 |
| Cc1nc(C)c(Cn2c(=O)n(Cc3cnn(C)c3)c(=O)c3cc(S(=O)(=O)NC4(C)CC4)sc32)s1 [US20240083908, Example 25] | 13 |
| Cn1cc(Cn2c(=O)c3cc(S(=O)(=O)NC4(C)CC4)sc3n(Cc3ccc4c(c3)COC4)c2=O)cn1 [US20240083908, Example 28] | 10 |
| Cn1cc(Cn2c(=O)c3cc(S(=O)(=O)NC4(C)CC4)sc3n(Cc3ccc4cn[nH]c4c3)c2=O)cn1 [US20240083908, Example 36] | 5.3 |
| Cn1cc(Cn2c(=O)c3cc(S(=O)(=O)NC4(C)CC4)sc3n(Cc3ccc4cncn4c3)c2=O)cn1 [US20240083908, Example 40] | 4.1 |
| COc1ccc(Cn2c(=O)n(Cc3cnn(C)c3)c(=O)c3cc(S(=O)(=O)NC4(C)CC4)sc32)cc1 [US20240083908, Example 50] | 40 |
| Cn1cc(Cn2c(=O)c3cc(S(=O)(=O)NC4(C)CC4)sc3n(Cc3cnn(CCO)c3)c2=O)cn1 [US20240083908, Example 57] | 20 |
| COCc1cc2cc(Cn3c(=O)n(Cc4cnn(C)c4)c(=O)c4cc(S(=O)(=O)NC5(C)CC5)sc43)ccc2o1 [US20240083908, Example 63] | 20 |
| Cn1cc(Cn2c(=O)c3cc(S(=O)(=O)NC4(C)CC4)sc3n(Cc3ccc4oc(CO)cc4c3)c2=O)cn1 [US20240083908, Example 64] | 15 |
| Cn1cc(Cn2c(=O)c3cc(S(=O)(=O)NC4(C)CC4)sc3n(Cc3ccc(OC4CC4)cc3)c2=O)cn1 [US20240083908, Example 68] | 63 |
| CNCCN(C)c1ccc(Cn2c(=O)n(Cc3cnn(C)c3)c(=O)c3cc(S(=O)(=O)NC4(C)CC4)sc32)cc1F [US20240083908, Example 77] | 70 |
| CN(C)CCN(C)c1ccc(Cn2c(=O)n(Cc3cnn(C)c3)c(=O)c3cc(S(=O)(=O)NC4(C)CC4)sc32)cc1F [US20240083908, Example 78] | 111 |
| Cn1cc(Cn2c(=O)c3cc(S(=O)(=O)NC4(C)CC4)sc3n(C3CCNCC3)c2=O)cn1 [US20240083908, Example 91] | 270 |
| CC(=O)N1CCC(n2c(=O)n(Cc3cnn(C)c3)c(=O)c3cc(S(=O)(=O)NC4(C)CC4)sc32)CC1 [US20240083908, Example 92] | 230 |
| CNCCC(=O)N1CCC(n2c(=O)n(Cc3cnn(C)c3)c(=O)c3cc(S(=O)(=O)NC4(C)CC4)sc32)CC1 [US20240083908, Example 95] | 320 |
| CN1CCC(Cn2c(=O)n(Cc3cnn(C)c3)c(=O)c3cc(S(=O)(=O)NC4(C)CC4)sc32)CC1 [US20240083908, Example 98] | 5940 |
| Cn1cc(Cn2c(=O)c3cc(S(=O)(=O)NC4(C)CC4)sc3n(CC3CCN(CCO)CC3)c2=O)cn1 [US20240083908, Example 99] | 500 |
| Cn1cc(Cn2c(=O)c3cc(S(=O)(=O)NC4(C#N)CC4)sc3n(Cc3ccc4c(c3)COC4)c2=O)cn1 [US20240083908, Example 100] | 42 |
| Cc1nc(C)c(Cn2c(=O)n(Cc3cnn(CCO)c3)c(=O)c3cc(S(=O)(=O)NC4(C)CC4)sc32)s1 [US20240083908, Example 104b] | 120 |
| Cc1nc(C)c(Cn2c(=O)n(Cc3ccc(Cl)nc3)c(=O)c3cc(S(=O)(=O)NC4(C)CC4)sc32)s1 [US20240083908, Example 105] | 50 |
| CC1(NS(=O)(=O)c2cc3c(=O)n(Cc4nc5c(s4)CCCC5)c(=O)n(Cc4ccc5c(c4)COC5)c3s2)CC1 [US20240083908, Example 106] | 990 |
| Cc1ncc(Cn2c(=O)c3cc(S(=O)(=O)NC4(C)CC4)sc3n(Cc3cc(C(C)C)nn3C)c2=O)s1 [US20240083908, Example 107] | 70 |
| Cn1cc(Cn2c(=O)c3cc(S(=O)(=O)NC4(C)CC4)sc3n(Cc3cnc4c(c3)COC4)c2=O)cn1 [US20240083908, Example 108] | 4 |
| Cn1cc(Cn2c(=O)c3cc(S(=O)(=O)NC4(C)CC4)sc3n(Cc3cc4c(cc3F)COC4)c2=O)cn1 [US20240083908, Example 110] | 17 |
| COc1cc2c(cc1Cn1c(=O)n(Cc3cnn(C)c3)c(=O)c3cc(S(=O)(=O)NC4(C)CC4)sc31)COC2 [US20240083908, Example 111] | 120 |
| COc1cc(Cn2c(=O)n(Cc3cnn(C)c3)c(=O)c3cc(S(=O)(=O)NC4(C)CC4)sc32)ccc1F [US20240083908, Example 121] | 20 |
| Cn1cc(Cn2c(=O)c3cc(S(=O)(=O)NC4(C)CC4)sc3n(Cc3ccc4c(c3)CC(=O)N4)c2=O)cn1 [US20240083908, Example 130] | 3 |
| Cn1cc(Cn2c(=O)c3cc(S(=O)(=O)NC4(C)CC4)sc3n(-c3ccc(F)cc3)c2=O)cn1 [US20240083908, Example 136] | 860 |

Source: BindingDB's records for patent US20240083908 (Modulus Discovery, 2024)
